Assay results published in patent publication US12290535B2, “Langerin+ cell targeting” (Max-Planck-Gesellschaft zur Förderung der Wissenschaften …, priority 2018, dated 2025).

Target: T1, Langerin CRD (Homo sapiens, UniProt Q9UJ71, V278A)
T1 construct: residues 193 to 328; made in house; host or cells: E. coli BL21* (DE3)
Assay: 15N HSQC NMR titration (KD determination)
Format: binding
Experimental: Langerin and DC-SIGN carbohydrate recognition domain. Expression and purification were conducted as previously published. Briefly, the monomeric ^15N-labeled Langerin and DC-SIGN carbohydrate recognition domains (CRDs) were expressed insolubly in E. coli BL21* (DE3) (Invitrogen). Following enzymatic cell lysis, inclusion bodies were harvested and subsequently solubilized. The sample was centrifuged and the Langerin and DC-SIGN CRDs were refolded overnight via rapid dilution. Next, the sample was dialyzed overnight, centrifuged and purified via StrepTactin affinity chromatography (Iba). […] The concentration of Langerin and DC-SIGN CRDs was determined via UV spectroscopy (A280, 0.1%=3.19 and A280, 0.1%=2.98). Purity and monodispersity of Langerin and DC-SIGN CRD samples were analyzed via SDS PAGE and DLS. […]
KD determination. KD values were determined in titration experiments at six ligand concentrations [L]T. Samples were prepared via serial dilution. Chemical shift perturbations CSPs for Langerin CRD resonances in the fast or fast-to-intermediate exchange regime observed upon titration with ligand were calculated via Equation 1 (Williamson, M. P. Using Chemical Shift Perturbation to Characterise Ligand Binding. Prog Nucl Magn Reson Spectrosc 73, 1-16 (2013)). […]

T1 sequence (Q9UJ71 193-328 V278A): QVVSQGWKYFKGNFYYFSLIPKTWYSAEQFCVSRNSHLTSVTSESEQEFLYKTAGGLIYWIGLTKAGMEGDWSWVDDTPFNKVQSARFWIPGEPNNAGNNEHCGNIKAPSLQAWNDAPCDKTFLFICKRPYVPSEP

Kd: 12 ± 1 mM
SMILES: CC(=O)NCCO[C@H]1O[C@H](CO)[C@@H](O)[C@H](O)[C@@H]1O [Man analog 21]
